Data as given in patent publication US20040220081A1, “Nanoparticulate bioactive agents” (Spherics, Inc., priority 2002, published 2004).

Legend:
[1] = in vivo; conditions: rat
[2] = Electron microscopy of precipitated particles of other drugs; assay type: physicochemical; conditions: 3% drug in dichloromethane precipitated in 100 vol. pentane, needles
Excerpt: In other experiments, 3% of the drug carbamazepine in dichloromethane was precipitated in 100 vol. of pentane. By electron microscopy, the particles were predominantly needles, about 1 micron in diameter by 50 microns in length. A few 1 micron spherical particles were also observed. A similar experiment using the drug itraconazole produced generally spherical particles in the range of about 0.1 to 0.5 microns diameter, by electron microscopy.

| bioavailability [1] [%] | particle diameter [2] | particle length [2] [microns] | SMILES |
| --- | --- | --- | --- |
| 0.7 | – | – | CC(=O)O[C@H]1C(=O)[C@@]2(C)[C@H]([C@H](OC(=O)c3ccccc3)[C@]3(O)C[C@H](OC(=O)[C@H](O)[C@@H](NC(=O)c4ccccc4)c4ccccc4)C(C)=C1C3(C)C)[C@]1(OC(C)=O)CO[C@@H]1C[C@@H]2O [(e), paclitaxel] |
| – | about 1 micron | ~50 | NC(=O)N1c2ccccc2C=Cc2ccccc21 [carbamazepine] |
